Assay results from doi:10.1101/2023.03.24.534094v2 (biorxiv, 2023).
Read-outs that look alike come from different tables or passages of the source.

Columns and labels:
Assay in all cases: biochemical
Wnk1 = Wnk1 (Homo sapiens, UniProt Q9H4A3)
Haspin = target: T1, Haspin (Homo sapiens, UniProt Q8TF76)
T1 sequence (Q8TF76 1-798): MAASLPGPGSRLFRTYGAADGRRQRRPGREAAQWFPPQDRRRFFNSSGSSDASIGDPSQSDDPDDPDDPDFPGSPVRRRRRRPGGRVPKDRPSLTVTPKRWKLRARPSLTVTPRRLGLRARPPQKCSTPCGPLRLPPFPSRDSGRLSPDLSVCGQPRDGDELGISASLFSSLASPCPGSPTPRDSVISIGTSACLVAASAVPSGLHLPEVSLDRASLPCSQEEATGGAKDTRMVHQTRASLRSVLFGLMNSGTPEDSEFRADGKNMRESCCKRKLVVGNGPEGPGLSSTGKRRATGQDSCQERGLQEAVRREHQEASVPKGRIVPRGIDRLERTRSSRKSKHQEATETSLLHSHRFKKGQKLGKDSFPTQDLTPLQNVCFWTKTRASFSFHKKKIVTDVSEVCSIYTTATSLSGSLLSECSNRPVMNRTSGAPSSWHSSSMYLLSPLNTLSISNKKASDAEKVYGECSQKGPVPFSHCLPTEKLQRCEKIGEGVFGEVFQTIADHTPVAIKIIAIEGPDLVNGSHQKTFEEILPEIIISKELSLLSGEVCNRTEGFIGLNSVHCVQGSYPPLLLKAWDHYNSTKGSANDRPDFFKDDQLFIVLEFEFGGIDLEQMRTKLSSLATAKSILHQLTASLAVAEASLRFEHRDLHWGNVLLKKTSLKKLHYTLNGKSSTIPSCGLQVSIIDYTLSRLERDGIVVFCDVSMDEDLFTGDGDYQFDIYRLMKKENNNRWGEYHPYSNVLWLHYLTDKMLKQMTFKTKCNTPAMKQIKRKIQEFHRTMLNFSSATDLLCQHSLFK

GAK = target: T2, GAK (Homo sapiens, UniProt O14976)
T2 sequence (O14976 1-1311): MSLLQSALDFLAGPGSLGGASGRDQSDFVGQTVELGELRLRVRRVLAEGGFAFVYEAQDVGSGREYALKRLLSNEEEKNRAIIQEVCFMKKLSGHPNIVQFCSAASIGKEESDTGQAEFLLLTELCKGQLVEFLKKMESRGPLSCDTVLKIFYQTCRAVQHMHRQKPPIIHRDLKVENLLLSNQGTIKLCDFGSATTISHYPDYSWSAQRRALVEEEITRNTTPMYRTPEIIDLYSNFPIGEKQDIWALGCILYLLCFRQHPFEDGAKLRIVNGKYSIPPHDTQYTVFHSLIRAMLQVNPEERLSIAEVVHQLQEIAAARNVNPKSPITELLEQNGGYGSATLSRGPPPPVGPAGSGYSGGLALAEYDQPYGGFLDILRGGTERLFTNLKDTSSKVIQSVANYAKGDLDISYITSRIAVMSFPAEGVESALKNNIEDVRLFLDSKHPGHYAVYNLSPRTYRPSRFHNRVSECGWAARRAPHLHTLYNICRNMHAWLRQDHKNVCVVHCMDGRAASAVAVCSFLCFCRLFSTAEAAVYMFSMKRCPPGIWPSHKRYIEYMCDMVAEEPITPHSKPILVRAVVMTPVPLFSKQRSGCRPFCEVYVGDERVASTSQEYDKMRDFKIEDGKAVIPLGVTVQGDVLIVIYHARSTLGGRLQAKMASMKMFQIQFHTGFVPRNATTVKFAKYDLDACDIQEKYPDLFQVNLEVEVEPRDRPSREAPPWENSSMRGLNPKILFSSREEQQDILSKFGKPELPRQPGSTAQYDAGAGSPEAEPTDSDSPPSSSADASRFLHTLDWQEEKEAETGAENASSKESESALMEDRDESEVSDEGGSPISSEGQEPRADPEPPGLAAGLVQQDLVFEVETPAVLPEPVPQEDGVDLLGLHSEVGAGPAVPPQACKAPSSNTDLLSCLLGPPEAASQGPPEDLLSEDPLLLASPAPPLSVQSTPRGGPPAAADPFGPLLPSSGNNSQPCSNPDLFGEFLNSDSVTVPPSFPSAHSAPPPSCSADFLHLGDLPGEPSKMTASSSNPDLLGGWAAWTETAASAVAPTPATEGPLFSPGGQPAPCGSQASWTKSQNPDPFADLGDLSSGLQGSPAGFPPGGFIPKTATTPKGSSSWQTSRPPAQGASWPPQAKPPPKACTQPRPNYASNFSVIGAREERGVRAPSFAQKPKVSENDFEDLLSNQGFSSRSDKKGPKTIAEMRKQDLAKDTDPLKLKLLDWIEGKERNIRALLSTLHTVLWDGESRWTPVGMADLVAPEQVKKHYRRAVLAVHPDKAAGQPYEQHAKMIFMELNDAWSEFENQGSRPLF

NEK7 = NEK7 (Homo sapiens, UniProt Q8TDX7)
NEK7, sequence (Q8TDX7 whole entry): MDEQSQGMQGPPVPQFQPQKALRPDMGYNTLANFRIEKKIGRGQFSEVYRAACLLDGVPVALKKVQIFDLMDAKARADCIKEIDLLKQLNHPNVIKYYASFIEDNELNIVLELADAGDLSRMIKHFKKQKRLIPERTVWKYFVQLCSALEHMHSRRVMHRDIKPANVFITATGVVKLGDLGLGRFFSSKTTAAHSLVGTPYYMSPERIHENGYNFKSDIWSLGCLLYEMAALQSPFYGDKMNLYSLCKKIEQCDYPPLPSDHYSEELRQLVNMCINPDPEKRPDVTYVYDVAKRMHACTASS

Wnk1, sequence (Q9H4A3 whole entry): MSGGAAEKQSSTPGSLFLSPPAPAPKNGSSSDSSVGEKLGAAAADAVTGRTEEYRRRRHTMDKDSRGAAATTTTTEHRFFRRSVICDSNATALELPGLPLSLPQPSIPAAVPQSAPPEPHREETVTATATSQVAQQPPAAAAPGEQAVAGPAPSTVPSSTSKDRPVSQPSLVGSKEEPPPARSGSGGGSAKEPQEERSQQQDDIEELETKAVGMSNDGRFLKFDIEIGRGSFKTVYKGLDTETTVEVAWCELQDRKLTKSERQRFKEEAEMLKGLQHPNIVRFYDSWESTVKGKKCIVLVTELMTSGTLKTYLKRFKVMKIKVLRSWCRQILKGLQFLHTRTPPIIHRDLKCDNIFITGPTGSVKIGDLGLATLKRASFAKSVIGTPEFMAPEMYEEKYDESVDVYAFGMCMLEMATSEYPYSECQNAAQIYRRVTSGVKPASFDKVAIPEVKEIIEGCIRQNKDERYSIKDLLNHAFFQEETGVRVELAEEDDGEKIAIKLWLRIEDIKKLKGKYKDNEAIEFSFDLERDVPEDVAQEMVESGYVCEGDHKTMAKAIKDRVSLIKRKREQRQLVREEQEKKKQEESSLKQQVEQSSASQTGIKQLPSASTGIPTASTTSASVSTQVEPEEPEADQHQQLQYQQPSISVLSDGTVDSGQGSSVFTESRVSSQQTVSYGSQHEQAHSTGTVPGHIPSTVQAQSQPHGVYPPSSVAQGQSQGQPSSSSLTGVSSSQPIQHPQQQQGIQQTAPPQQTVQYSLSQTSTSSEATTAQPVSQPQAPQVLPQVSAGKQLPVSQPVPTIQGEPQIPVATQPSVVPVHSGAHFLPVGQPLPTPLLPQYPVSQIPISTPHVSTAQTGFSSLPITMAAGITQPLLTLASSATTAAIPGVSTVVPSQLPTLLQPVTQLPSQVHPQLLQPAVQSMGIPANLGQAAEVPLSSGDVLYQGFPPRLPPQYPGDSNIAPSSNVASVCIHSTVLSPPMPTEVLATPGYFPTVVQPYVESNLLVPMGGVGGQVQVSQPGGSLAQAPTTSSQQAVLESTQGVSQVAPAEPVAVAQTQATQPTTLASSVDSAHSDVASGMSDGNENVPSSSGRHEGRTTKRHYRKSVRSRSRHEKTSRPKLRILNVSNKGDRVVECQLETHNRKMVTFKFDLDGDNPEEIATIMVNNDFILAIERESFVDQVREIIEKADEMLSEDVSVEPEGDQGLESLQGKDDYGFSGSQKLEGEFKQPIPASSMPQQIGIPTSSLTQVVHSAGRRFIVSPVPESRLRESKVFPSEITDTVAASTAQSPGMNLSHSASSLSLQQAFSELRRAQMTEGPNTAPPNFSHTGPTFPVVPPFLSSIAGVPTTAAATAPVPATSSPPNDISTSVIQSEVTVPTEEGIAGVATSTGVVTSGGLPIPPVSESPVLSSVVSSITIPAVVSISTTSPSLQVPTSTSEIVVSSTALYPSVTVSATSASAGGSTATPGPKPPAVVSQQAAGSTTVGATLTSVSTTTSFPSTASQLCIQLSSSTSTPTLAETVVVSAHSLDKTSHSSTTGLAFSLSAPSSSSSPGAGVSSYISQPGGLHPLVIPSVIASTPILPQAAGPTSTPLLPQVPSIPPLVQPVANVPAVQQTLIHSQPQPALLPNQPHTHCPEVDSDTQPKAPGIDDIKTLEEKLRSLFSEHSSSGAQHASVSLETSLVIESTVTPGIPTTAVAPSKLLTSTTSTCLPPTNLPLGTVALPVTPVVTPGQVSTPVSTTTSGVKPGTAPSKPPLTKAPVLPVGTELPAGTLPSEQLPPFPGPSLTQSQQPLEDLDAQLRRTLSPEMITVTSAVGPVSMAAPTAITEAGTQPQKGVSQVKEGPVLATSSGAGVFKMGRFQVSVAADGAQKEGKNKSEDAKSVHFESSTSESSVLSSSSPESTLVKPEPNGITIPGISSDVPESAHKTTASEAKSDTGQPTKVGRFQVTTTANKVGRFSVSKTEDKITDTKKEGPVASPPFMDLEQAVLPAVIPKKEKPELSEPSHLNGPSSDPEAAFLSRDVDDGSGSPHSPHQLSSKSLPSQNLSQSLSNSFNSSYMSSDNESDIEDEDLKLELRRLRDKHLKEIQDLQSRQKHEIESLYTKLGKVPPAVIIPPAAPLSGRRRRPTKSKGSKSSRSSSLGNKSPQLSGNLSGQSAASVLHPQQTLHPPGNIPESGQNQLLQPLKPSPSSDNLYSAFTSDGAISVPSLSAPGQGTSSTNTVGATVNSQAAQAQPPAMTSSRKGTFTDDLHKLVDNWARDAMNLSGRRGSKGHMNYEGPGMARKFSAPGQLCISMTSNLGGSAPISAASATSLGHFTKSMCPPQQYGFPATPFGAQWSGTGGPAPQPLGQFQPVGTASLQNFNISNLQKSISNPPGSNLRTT

A ΔTm at 10 µM (Wnk1; read-out: dTm 12) of 1 °C, a ΔTm at 10 µM (Haspin; read-out: dTm 12) of -0.4 °C and a ΔTm at 10 µM (GAK; read-out: dTm 12) of 7.6 °C were found for CNc1ncc2cc(-c3cc(F)c(-c4cccc(C)n4)cc3F)c(=O)n(CCCCN)c2n1 [compound 12, 8-(4-Aminobutyl)-6-(2,5-difluoro-4-(6-methylpyridin-2-yl)phenyl)-2-(methylamino)pyrido[2,3-d]pyrimidin-7(8H)-one] in this work. It also gave a ΔTm at 10 µM (NEK7; read-out: dTm 12) of -2.1 °C.
A ΔTm at 10 µM (Wnk1; read-out: dTm 9) of 0.1 °C, a ΔTm at 10 µM (Haspin; read-out: dTm 9) of 0.1 °C and a ΔTm at 10 µM (GAK; read-out: dTm 9) of 1 °C were found for CNc1ncc2cc(-c3cc(C(F)(F)F)ccc3Cl)c(=O)n(CCCCN)c2n1 [compound 9, 8-(4-Aminobutyl)-6-(2-chloro-5-(trifluoromethyl)phenyl)-2-(methylamino)pyrido[2,3-d]pyrimidin-7(8H)-one] in this work. The ΔTm at 10 µM (NEK7; read-out: dTm 9) was 0.4 °C.
A ΔTm at 10 µM (Wnk1; read-out: dTm 8) of 0.3 °C, a ΔTm at 10 µM (Haspin; read-out: dTm 8) of 0.6 °C and a ΔTm at 10 µM (GAK; read-out: dTm 8) of 3.7 °C were found for CNc1ncc2cc(-c3cc(Cl)ccc3Cl)c(=O)n(CCCCN)c2n1 [compound 8, 8-(4-Aminobutyl)-6-(2,5-dichlorophenyl)-2-(methylamino)pyrido[2,3-d]pyrimidin-7(8H)-one] in this work. For the same molecule, the ΔTm at 10 µM (NEK7; read-out: dTm 8) was -0.2 °C.
A ΔTm at 10 µM (Wnk1; read-out: dTm 10) of 0.3 °C, a ΔTm at 10 µM (Haspin; read-out: dTm 10) of 0.6 °C and a ΔTm at 10 µM (GAK; read-out: dTm 10) of 3.3 °C were found for CNc1ncc2cc(-c3cc(Cl)ccc3Br)c(=O)n(CCCCN)c2n1 [compound 10, 8-(4-Aminobutyl)-6-(2-bromo-5-chlorophenyl)-2-(methylamino)pyrido[2,3-d]pyrimidin-7(8H)-one] in this work. For the same molecule, the ΔTm at 10 µM (NEK7; read-out: dTm 10) was -0.5 °C.
A ΔTm at 10 µM (Wnk1; read-out: dTm 11) of 0.4 °C, a ΔTm at 10 µM (Haspin; read-out: dTm 11) of 0.7 °C and a ΔTm at 10 µM (GAK; read-out: dTm 11) of 3.3 °C were found for CNc1ncc2cc(-c3cc(Br)ccc3Br)c(=O)n(CCCCN)c2n1 [compound 11, 8-(4-Aminobutyl)-6-(2,5-dibromophenyl)-2-(methylamino)pyrido[2,3-d]pyrimidin-7(8H)-one] in this work. The ΔTm at 10 µM (NEK7; read-out: dTm 11) was -0.2 °C.
